Measured values taken from patent US20030219427A1, “TPL-2/COT kinase and methods of use” (priority 1998, published 2003).
Entries after “also recorded” stand apart in the source; their conditions may differ. Peptide text beside a SMILES is read from it. * marks the point of attachment. Cbz = O=C(OCc1ccccc1)*

How the values were obtained:
[1] = biological target: T1, TPL-2/COT kinase (FLAG-COT (30-397)) (Homo sapiens, UniProt P41279); assay: TPL-2/COT kinase assay and inhibitor screening (COT autophosphorylation and phosphorylation of GST-IκB-α); assay type: biochemical; conditions: for IC50: retested at 100 μM, 10 μM and 1 μM, compared to DMSO vehicle control, read-out: IC50 for TPL-2 inhibition (inhibits TPL-2 kinase activity by 50%); for inhibitory activity on COT autophosphorylation and phosphorylation of a COT target (IκB-α): initial screen at 100 μM in duplicate
T1 construct: made in house; host or cells: human 293A cells, transient transfection of a pcDNA vector, anti-FLAG immunoprecipitation
Description: FLAG-tagged COT protein was expressed in 293A cells by transfection. Typically, 24 h before transfection, human 293A cells (Quantum) were plated at 2×10^6 cells per 10 cm plate. A transfection mixture was prepared comprising 60 μl Lipofectamine (Gibco) and 800 μl Optimem (Gibco) in 15 ml tube. In. a separate tube, 8 μg of DNA encoding a FLAG-tagged COT(30-397) gene in a pcDNA vector was added to 800 μl Optimem. The contents of each tube were then mixed gently with a pipette, and allowed to incubate at room temperature for 25 min. Cells were washed once with Optimem and incubated with the transfection mixture and 6.4 ml of Optimem and allowed to incubate 5 h at 37° C. and 5% CO2. Cells were then incubated with 8 ml DMEM+10% FBS+L-glutamine on day 1, DMEM+5% FBS+L-glutamine on day 2 and harvested 48 h post-transfection.
Transfected 293A cells expressing FLAG-COT (30-397) were lysed on ice for 15 min in lysis buffer (1% Triton X-100, 50 mM Tris-HCl pH 7.5, 150 mM NaCl, 1 mM EDTA, 1 mM EGTA, 20 mM NaF, 10 mM Na4P2O7, 50 mM Na3VO4 plus Complete protease inhibitors (Boehringer)) and lysates were centrifuged (14,000 rpm for 10 min at 4° C.) and supernatants were collected. Immunoprecipitations were performed using FLAG Ab gel (Sigma) at 50 μg Ab per ml of lysate for 3 h at 4° C. with mixing. Gel beads were washed at 4° C. twice with lysis buffer and then twice with wash buffer (50 mM Tris-HCl pH 7.5, 100 mM NaCl, 0.1 mM EGTA and 1 mM DTT). Gel beads were then resuspended in wash buffer and aliquoted into tubes for various kinase reactions.
A TPL-2/COT kinase assay was used to screen various candidate TPL-2/COT kinase inhibitors. The kinase assay was performed a follows. A TPL-2 kinase (i.e., FLAG-COT (30-397)) bound on gel beads was incubated with 2 μg of a target polypeptide substrate (i.e., GST IκB-α (1-50) (Boston Biologicals) in kinase buffer (50 mM Tris-HCl pH 7.5, 10 mM MgCl2, 1 mM EGTA, 2 mM DTT and 0.01% Brij 35) in the presence of an appropriate radiolabel (30 μM ATP and 5 μCi γ-^32P-ATP (Amersham)) for 10 min at 25° C. Reactions were performed in the presence or absence of candidate compounds for inhibitor activity that were prepared as 10 mM stock solutions in 100% DMSO. The test compounds were added to the kinase reaction mixture immediately before addition of […]. Reactions were stopped by the addition of 5×SDS sample buffer, heating at 100° C. for 3 min and supernatants were collected using centrifugation. The autophosphorylation of COT and phosphorylation of the target polypeptide, i.e., GST-IκB-α were analyzed by gel electrophoresis (10% SDS-PAGE) followed by transfer to nitrocellulose membranes and autoradiography. As a control to confirm equivalent levels of FLAG-COT(30-397) and GST-IκB-α proteins were used in the different kinase reactions and also equivalent gel loading, immunoblots were performed with anti-FLAG and anti-GST antibodies, respectively, on the same membranes used for autoradiography. Inhibition of COT kinase activity, either autophosphorylation activity or phosphorylation of the target polypeptide GST-IκB-α was quantitated by scanning of autoradiographs (FIG. 13). Compounds that altered the level of these activities were further analyzed as described below.
As similarly described above, a TPL-2 polypeptide expressed in insect cells was tested for kinase activity using a target polypeptide in the presence or absence of a candidate modulator compound. […]

[2] = tested on: TPL-2-induced myc-p105 proteolysis in 3T3 cells; assay: Pulse-chase metabolic labeling of TPL-2-induced myc-p105 proteolysis; assay type: cell-based
Description: Pulse-chase metabolic labeling is performed to determine whether TPL-2 regulates the proteolysis of myc-p105 in 3T3 fibroblasts. For pulse-chase metabolic labeling, NIH-3T3 fibroblasts are transiently transfected using LipofectAMINE (Gibco-BRL) (Huby, et al., (1997) J. Cell. Biol. 137, 1639-1649). Preparation of cytoplasmic and nuclear fractions is performed as described (Watanabe, et al., (1997)
EMBO J. 16, 3609-3620). For pulse-chase metabolic labeling, 2.7×10^5 3T3 cells per 60 mm dish (Nunc) are transfected with the indicated expression vectors. After 24 h, cells are washed and cultured in Met/Cys-free medium for 1 h. Cells are then labeled with 145 MBq of [^35S]-Met/[^35S]-Cys (Pro-Mix, Amersham-Pharmacia Biotech) per dish for 30 min and after washing, chased in complete medium for the indicated times. […] MG132 proteasome inhibitor (Biomol Research labs) is added at […] during the last 15 min of the Met/Cys starvation period and is maintain throughout the chase. Labeled bands are quantified by laser densitometry using a Molecular Dynamics Personal Densitometer. All pulse-chase experiments are performed on at least two occasions with similar results.
The effect of the peptide aldehyde MG132, a potent inhibitor of the proteasome, is determined to investigate whether myc-p105 proteolysis induced by TPL-2 is mediated by the proteasome. […]

[3] = biological target: T2, HA-p105(369-969) (Homo sapiens (Human), UniProt P19838 368-968); assay: co-expression in Sf9 cells, purification of the complex from lysates
T2 construct: also called p105?N
T2 sequence: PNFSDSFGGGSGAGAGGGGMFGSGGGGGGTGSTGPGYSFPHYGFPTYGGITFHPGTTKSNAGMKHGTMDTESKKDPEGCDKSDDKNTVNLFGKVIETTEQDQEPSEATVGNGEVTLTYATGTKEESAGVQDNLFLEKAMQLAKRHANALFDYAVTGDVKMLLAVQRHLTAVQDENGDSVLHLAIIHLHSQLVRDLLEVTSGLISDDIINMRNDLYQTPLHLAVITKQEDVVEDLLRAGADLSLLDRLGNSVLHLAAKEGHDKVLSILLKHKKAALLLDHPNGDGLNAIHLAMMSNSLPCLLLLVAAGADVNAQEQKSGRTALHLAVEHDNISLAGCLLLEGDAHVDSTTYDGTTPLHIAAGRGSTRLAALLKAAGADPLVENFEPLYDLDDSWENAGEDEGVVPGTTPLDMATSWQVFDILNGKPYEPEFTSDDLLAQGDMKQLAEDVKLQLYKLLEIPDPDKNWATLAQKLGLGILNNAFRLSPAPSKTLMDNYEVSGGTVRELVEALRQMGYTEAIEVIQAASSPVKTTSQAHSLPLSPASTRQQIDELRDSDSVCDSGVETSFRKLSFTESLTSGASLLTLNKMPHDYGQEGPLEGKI

[4] = biological target: Myc-TPL-2 (Homo sapiens (Human), UniProt P41279 1-467); assay: cell-based or functional assay
[5] = biological target: T3, Myc-Raf1(CAAX) MEK kinase activity (Homo sapiens, UniProt P04049); assay: In vitro MEK kinase assay, activated Raf1; assay type: biochemical
T3 construct: CAAX membrane-targeting motif (C); made in house

[6] = biological target: Myc-TPL-2ΔC (Homo sapiens (Human), UniProt P41279 1-397); assay: cell-based or functional assay

Question: With `CCOC(=O)c1cnc2c(c1Nc1ccc(Sc3ccccc3)cc1)C(=O)CCC2` [ethyl 5-oxo-4-[4-(phenylsulfanyl)anilino]-5,6,7,8-tetrahydro-3-quinolinecarboxylate] as the molecule, how does the IC50 [1] read?
Answer: Its IC50 is 10 µM.

Question: With `CN[C@@H]1C[C@H]2O[C@@](C)([C@@H]1OC)n1c3ccccc3c3c4c(c5c6ccccc6n2c5c31)C(=O)NC4` [staurosporine] as the molecule, how does the “inhibitory activity on COT autophosphorylation and phosphorylation of a COT target (IκB-α)” value (“inhibitory activity” for short) [1] read?
Answer: Its value is “little or no inhibitory activity”.

Question: What does the source list for `CC(C)C[C@@H](C=O)NC(=O)[C@H](CC(C)C)NC(=O)[C@H](CC(C)C)NC(=O)OCc1ccccc1` [MG132] (Cbz-Leu-Leu-Leu-aldehyde)?
Answer: effect on TPL-2-induced increased turnover (proteolysis) of myc-p105 ([2]; 3T3 cells co-transfected with myc-p105 and TPL-2, drug maintained throughout chase): blocks increased turnover of myc-p105; effect on production of myc-p50 ([2]; TPL-2 co-expressing 3T3 cells, during the chase): completely prevents production of myc-p50; also recorded: completely blocked the production of myc-p50

Question: With `COc1cccc(-c2cc(=O)c3ccccc3o2)c1N` [PD98059] as the molecule, how does the “inhibitory activity” value [1] read?
Answer: Its value is “little or no inhibitory activity”.

Question: With `c1ccc(Oc2ccc3nccc(Nc4ccc(Sc5ccccc5)cc4)c3c2)cc1` [N-(6-phenoxy-4-quinolyl)-N-[4-(phenylsulfanyl)phenyl]amine] as the molecule, how does the IC50 [1] read?
Answer: Its IC50 is 50 µM.

Question: `C[S+]([O-])c1ccc(-c2nc(-c3ccncc3)c(-c3ccc(F)cc3)[nH]2)cc1` (stereo not drawn) [SB 203580] was tested. Which “inhibitory activity” value [1] did it give?
Answer: Its value is “little or no inhibitory activity”.

B1: Flag-COT(30-467) (enzyme, not shown: small tags and cut ends)
chain: MENLYASEEPAVYEPSLMTMCQDSNQNDERSKSLLLSGQEVPWLSSVRYGTVEDLLAFANHISNTAKHFYGQRPQESGILLNMVITPQNGRYQIDSDVLLIPWKLTYRNIGSDFIPRGAFGKVYLAQDIKTKKRMACKLIPVDQFKPSDVEIQACFRHENIAELYGAVLWGETVHLFMEAGEGGSVLEKLESCGPMREFEIIWVTKHVLKGLDFLHSKKVIHHDIKPSNIVFMSTKAVLVDFGLSVQMTEDVYFPKDLRGTEIYMSPEVILCRGHSTKADIYSLGATLIHMQTGTPPWVKRYPRSAYPSYLYIIHKQAPPLEDIADDCSPGMRELIEASLERNPNHRPRAADLLKHEALNPPREDQPRCTSLDSALLERKRLLSRKELELPENIADSSCTGSTEESEMLKRQRSLYIDLGALAGYFNLVRGPPTLEYG
Question: Does B1 bind [3]?
Answer: Result: binds

B2: recombinant p105808-892 protein (p105 DD) (other)
chain: DMKQLAEDVKLQLYKLLEIPDPDKNWATLAQKLGLGILNNAFRLSPAPSKTLMDNYEVSGGTVRELVEALRQMGYTEAIEVIQAA
Question: B2 was tested. Which “IC50 of inhibition of TPL-2 MEK kinase activity in vitro” value [4] did it give?
Answer: The value was 0.55 µM.

Question: What about the “effect on Myc-Raf1(CAAX) MEK kinase activity” value [5] of the same molecule?
Answer: The value was “no effect”.

B3: Flag-COT(30-397) (enzyme, not shown: small tags and cut ends)
chain: MENLYASEEPAVYEPSLMTMCQDSNQNDERSKSLLLSGQEVPWLSSVRYGTVEDLLAFANHISNTAKHFYGQRPQESGILLNMVITPQNGRYQIDSDVLLIPWKLTYRNIGSDFIPRGAFGKVYLAQDIKTKKRMACKLIPVDQFKPSDVEIQACFRHENIAELYGAVLWGETVHLFMEAGEGGSVLEKLESCGPMREFEIIWVTKHVLKGLDFLHSKKVIHHDIKPSNIVFMSTKAVLVDFGLSVQMTEDVYFPKDLRGTEIYMSPEVILCRGHSTKADIYSLGATLIHMQTGTPPWVKRYPRSAYPSYLYIIHKQAPPLEDIADDCSPGMRELIEASLERNPNHRPRAADLLKHEALNPPREDQPR
Question: Does B3 bind [3]?
Answer: Result: binds

B4: HA-p105 (other, not shown: small tags and cut ends)
chain: MAEDDPYLGRPEQMFHLDPSLTHTIFNPEVFQPQMALPTADGPYLQILEQPKQRGFRFRYVCEGPSHGGLPGASSEKNKKSYPQVKICNYVGPAKVIVQLVTNGKNIHLHAHSLVGKHCEDGICTVTAGPKDMVVGFANLGILHVTKKKVFETLEARMTEACIRGYNPGLLVHPDLAYLQAEGGGDRQLGDREKELIRQAALQQTKEMDLSVVRLMFTAFLPDSTGSFTRRLEPVVSDAIYDSKAPNASNLKIVRMDRTAGCVTGGEEIYLLCDKVQKDDIQIRFYEEEENGGVWEGFGDFSPTDVHRQFAIVFKTPKYKDINITKPASVFVQLRRKSDLETSEPKPFLYYPEIKDKEEVQRKRQKLMPNFSDSFGGGSGAGAGGGGMFGSGGGGGGTGSTGPGYSFPHYGFPTYGGITFHPGTTKSNAGMKHGTMDTESKKDPEGCDKSDDKNTVNLFGKVIETTEQDQEPSEATVGNGEVTLTYATGTKEESAGVQDNLFLEKAMQLAKRHANALFDYAVTGDVKMLLAVQRHLTAVQDENGDSVLHLAIIHLHSQLVRDLLEVTSGLISDDIINMRNDLYQTPLHLAVITKQEDVVEDLLRAGADLSLLDRLGNSVLHLAAKEGHDKVLSILLKHKKAALLLDHPNGDGLNAIHLAMMSNSLPCLLLLVAAGADVNAQEQKSGRTALHLAVEHDNISLAGCLLLEGDAHVDSTTYDGTTPLHIAAGRGSTRLAALLKAAGADPLVENFEPLYDLDDSWENAGEDEGVVPGTTPLDMATSWQVFDILNGKPYEPEFTSDDLLAQGDMKQLAEDVKLQLYKLLEIPDPDKNWATLAQKLGLGILNNAFRLSPAPSKTLMDNYEVSGGTVRELVEALRQMGYTEAIEVIQAASSPVKTTSQAHSLPLSPASTRQQIDELRDSDSVCDSGVETSFRKLSFTESLTSGASLLTLNKMPHDYGQEGPLEGKI
Question: With B4 as the molecule, how does the “MEK kinase activity of TPL-2ΔC relative to wild type TPL-2 in cells expressing p105” value [6] read?
Answer: The value was > 40 fold.
